Experimental data: US10987359B2, “Oxadiazepinone derivatives and methods of treating hepatitis B infections” (priority 2016, dated 2021)

These molecules were tested on HBV (assay: HBV replication inhibition assay (BDNA assay) in HepG2.2.15 cells). Conditions: HBV replication assay (BDNA assay), HepG2.2.15 cells; read-out: DNA EC50.
Format: cell-based
Method in brief: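 HepG2.2.15 cells with stably integrated HBV were treated with serially diluted compounds at 0.5% DMSO for 6 days, with medium and compound refreshed at day 3. Encapsidated HBV DNA from DNase-treated supernatant was quantified by branched DNA assay. EC50 came from % inhibition versus DMSO, fitted non-linearly.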
For `C[C@@H]1Cc2nn3c(c2CN1C(=O)Nc1ccc(F)c(Br)c1)C(=O)N(C)OC(CN(C)C)C3` (stereo in doubt) [Compound 094_D2, (4R*,9R)—N-(3-bromo-4-fluorophenyl)-4-((dimethylamino)methyl)-2,9-dimethyl-1-oxo-1,4,5,8,9,11-hexahydropyrido[4′,3′:3,4]pyrazolo[5,1-d][1,2,5]oxadiazepine-10(2H)-carboxamide], the EC50 was 1 to 100 nM. `C[C@@H]1Cc2nn3c(c2CN1C(=O)Nc1ccc(F)c(C(F)(F)F)c1)C(=O)N(C)OC(CN)C3` (stereo in doubt) [Compound 116_D2, (4R*,9R)-4-(aminomethyl)-N-(4-fluoro-3-(trifluoromethyl)phenyl)-2,9-dimethyl-1-oxo-1,4,5,8,9,11-hexahydropyrido[4′,3′:3,4]pyrazolo[5,1-d][1,2,5]oxadiazepine-10(2H)-carboxamide] gave an EC50 of 1 to 100 nM. `C[C@@H]1Cc2nn3c(c2CN1C(=O)Nc1ccc(F)c(Cl)c1)C(=O)N(C)OC(CF)C3` (single isomer, unassigned) [Compound 088_E2, (4R*,9R)—N-(3-chloro-4-fluorophenyl)-4-(fluoromethyl)-2,9-dimethyl-1-oxo-1,4,5,8,9,11-hexahydropyrido[4′,3′:3,4]pyrazolo[5,1-d][1,2,5]oxadiazepine-10(2H)-carboxamide] showed an EC50 of 1 to 100 nM.

Same assay, conditions: Hepatitis B virus, HepG2.2.15, HBV replication assay (BDNA assay), HepG2.2.15 cells; read-out: DNA EC50
`CN1OC(CO)Cn2nc3c(c2C1=O)CN(C(=O)Nc1cccc(C(F)F)c1)CC3` (stereo not drawn) [Compound 021, N-(3-(difluoromethyl)phenyl)-4-(hydroxymethyl)-2-methyl-1-oxo-1,4,5,8,9,11-hexahydropyrido[4′,3′:3,4]pyrazolo[5,1-d][1,2,5]oxadiazepine-10(2H)-carboxamide] was tested, and the EC50 was 1 to 100 nM. For `CC1CN(C(=O)Nc2cccc(Cl)c2)Cc2c1nn1c2C(=O)N(C)OC(CO)C1` (stereo not drawn) [Compound 047, N-(3-chlorophenyl)-4-(hydroxymethyl)-2,8-dimethyl-1-oxo-1,4,5,8,9,11-hexahydropyrido[4′,3′:3,4]pyrazolo[5,1-d][1,2,5]oxadiazepine-10(2H)-carboxamide], the EC50 was 100 to 500 nM. In the case of `Cc1cc(F)c(Br)cc1NC(=O)N1CCc2nn3c(c2C1)C(=O)N(C)OC(CO)C3` (stereo not drawn) [Compound 018, N-(5-bromo-4-fluoro-2-methylphenyl)-4-(hydroxymethyl)-2-methyl-1-oxo-1,4,5,8,9,11-hexahydropyrido[4′,3′:3,4]pyrazolo[5,1-d][1,2,5]oxadiazepine-10(2H)-carboxamide], the EC50 is reported as 1 to 100 nM. `CC(=O)NCC1Cn2nc3c(c2C(=O)N(C)O1)CN(C(=O)Nc1ccc(F)c(C(F)(F)F)c1F)CC3` (single isomer, unassigned) [Compound 172_E1, (S*)-4-(acetamidomethyl)-N-(2,4-difluoro-3-(trifluoromethyl)phenyl)-2-methyl-1-oxo-1,4,5,8,9,11-hexahydropyrido[4′,3′:3,4]pyrazolo[5,1-d][1,2,5]oxadiazepine-10(2H)-carboxamide] showed an EC50 of 1 to 100 nM. `CN1OC(CO)Cn2nc3c(c2C1=O)CN(C(=O)Nc1ccc(F)c(C#N)c1)CC3` (single isomer, unassigned) [Compound 034_E1, (S*)—N-(3-cyano-4-fluorophenyl)-4-(hydroxymethyl)-2-methyl-1-oxo-1,4,5,8,9,11-hexahydropyrido[4′,3′:3,4]pyrazolo[5,1-d][1,2,5]oxadiazepine-10(2H)-carboxamide] gave an EC50 of 1 to 100 nM. `CC(O)CN1CCn2nc3c(c2C(=O)N1C)CN(C(=O)Nc1ccc(F)c(C#N)c1)[C@H](C)C3` (stereo partly drawn) [Compound 223, (9R)—N-(3-Cyano-4-fluorophenyl)-3-(2-hydroxypropyl)-2,9-dimethyl-1-oxo-1,2,3,4,5,8,9,11-octahydro-10H-pyrido[4′,3′:3,4]pyrazolo[5,1-d][1,2,5]triazepine-10-carboxamide] was tested, and the EC50 was 100 to 500 nM. Work on `CN1CCn2nc3c(c2C(=O)N1C)CN(C(=O)Nc1ccc(F)c(Cl)c1)CC3` [Compound 217, N-(3-Chloro-4-fluorophenyl)-2,3-dimethyl-1-oxo-1,2,3,4,5,8,9,11-octahydro-10H-pyrido[4′,3′:3,4]pyrazolo[5,1-d][1,2,5]triazepine-10-carboxamide] yielded an EC50 of 1 to 100 nM. For `CN1OC(CO)Cn2nc3c(c2C1=O)CN(C(=O)Nc1ccc(F)c(C(F)(F)F)c1F)CC3` (single isomer, unassigned) [Compound 149_E1, (S*)—N-(2,4-difluoro-3-(trifluoromethyl)phenyl)-4-(hydroxymethyl)-2-methyl-1-oxo-1,4,5,8,9,11-hexahydropyrido[4′,3′:3,4]pyrazolo[5,1-d][1,2,5]oxadiazepine-10(2H)-carboxamide], the EC50 was 1 to 100 nM. `CN1OC(CNS(C)(=O)=O)Cn2nc3c(c2C1=O)CN(C(=O)Nc1ccc(F)c(Cl)c1)CC3` (stereo not drawn) [Compound 165, N-(3-chloro-4-fluorophenyl)-2-methyl-4-(methylsulfonamidomethyl)-1-oxo-1,4,5,8,9,11-hexahydropyrido[4′,3′:3,4]pyrazolo[5,1-d][1,2,5]oxadiazepine-10(2H)-carboxamide] gave an EC50 of 1 to 100 nM. For `CN(CC(F)F)C(=O)C1Cn2nc3c(c2C(=O)N(C)O1)CN(C(=O)Nc1ccc(F)c(Cl)c1F)CC3` (stereo not drawn) [Compound 158, N10-(3-chloro-2,4-difluorophenyl)-N4-(2,2-difluoroethyl)-N4,2-dimethyl-1-oxo-1,4,5,8,9,11-hexahydropyrido[4′,3′:3,4]pyrazolo[5,1-d][1,2,5]oxadiazepine-4,10(2H)-dicarboxamide], the EC50 was 1 to 100 nM. With `CN1OC(CNC(=O)CC#N)Cn2nc3c(c2C1=O)CN(C(=O)Nc1ccc(F)c(Cl)c1)CC3` (stereo not drawn) [Compound 205, N-(3-chloro-4-fluorophenyl)-4-((2-cyanoacetamido)methyl)-2-methyl-1-oxo-1,4,5,8,9,11-hexahydropyrido[4′,3′:3,4]pyrazolo[5,1-d][1,2,5]oxadiazepine-10(2H)-carboxamide] the EC50 was 1 to 100 nM. In the case of `C[C@@H]1Cc2nn3c(c2CN1C(=O)Nc1cc(Cl)c(F)cc1F)C(=O)N(C)OC(CN(C)C)C3` (stereo in doubt) [Compound 099_D1, (4S*,9R)—N-(5-chloro-2,4-difluorophenyl)-4-((dimethylamino)methyl)-2,9-dimethyl-1-oxo-1,4,5,8,9,11-hexahydropyrido[4′,3′:3,4]pyrazolo[5,1-d][1,2,5]oxadiazepine-10(2H)-carboxamide], the EC50 is reported as 100 to 500 nM. Work on `C[C@@H]1Cc2nn3c(c2CN1C(=O)Nc1ccc(F)c(Br)c1)C(=O)N(C)N=C(COCC(F)F)C3` [Compound 236, (R)-N-(3-bromo-4-fluorophenyl)-4-((2,2-difluoroethoxy)methyl)-2,9-dimethyl-1-oxo-1,2,5,8,9,11-hexahydro-10H-pyrido[4′,3′:3,4]pyrazolo[5,1-d][1,2,5]triazepine-10-carboxamide] yielded an EC50 of 1 to 100 nM. `CN1OC(CNCC(F)F)Cn2nc3c(c2C1=O)CN(C(=O)Nc1ccc(F)c(Cl)c1F)CC3` (single isomer, unassigned) [Compound 188_E1, (S*)—N-(3-chloro-2,4-difluorophenyl)-4-(((2,2-difluoroethyl)amino)methyl)-2-methyl-1-oxo-1,4,5,8,9,11-hexahydropyrido[4′,3′:3,4]pyrazolo[5,1-d][1,2,5]oxadiazepine-10(2H)-carboxamide] was tested, and the EC50 was 1 to 100 nM. With `CN1OC(CO)Cn2nc3c(c2C1=O)CN(C(=O)Nc1ccc(Cl)c(Cl)c1F)CC3` (stereo not drawn) [Compound 024, N-(3,4-dichloro-2-fluorophenyl)-4-(hydroxymethyl)-2-methyl-1-oxo-1,4,5,8,9,11-hexahydropyrido[4′,3′:3,4]pyrazolo[5,1-d][1,2,5]oxadiazepine-10(2H)-carboxamide] the EC50 was 1 to 100 nM.
